No end group written: not given here. *: point of attachment. FITC = O=C1OC2(c3ccc(O)cc3Oc3cc(O)ccc32)c2ccc(NC(=S)*)cc21
Tests used:
[1] = test system: LC3-HiBiT reporter in HEK293 cells; experiment: Autophagy flux assay (LC3-HiBiT reporter), HEK293 cells; format: cell-based, human
Source text: Autophagic flux was quantitatively measured with the Autophagy LC3-HiBiT Reporter Assay System which was purchased from Promega (GA1040) and used according to the manufacturer’s instructions. When autophagy is induced, the cytosolic LC3-I fusion protein is recruited to phagophores where it becomes conjugated to phosphatidylethanolamine to form LC3-II. Upon phagophore membrane elongation and closure to form the mature autophagosome, a significant fraction of tethered LC3 protein becomes captured within the lumen together with various cargo. Subsequently, autophagosomes fuse with lysosomes to form autolysosomes, leading to the ultimate degradation of both cargo and the captured LC3 reporter protein. Thus, changes in the total level of the LC3 reporter protein can be used to monitor changes in autophagic flux. HEK293 cells (ATCC, CRL-1573) stably expressing the LC3-HiBiT reporter were trypsinized from subconfluent culture and seeded in a 10 cm plate at a density of 3.0 × 10^6 per plate. Cells were incubated overnight at 37 °C in 5% CO2. Cells were transfected with FLAG-peptide plasmids in combination with pcDNA or A53T a-syn plasmids. After 24 h, cells were trypsinized and seeded in triplicate in a white flat-bottomed 96-well plate at a density of 20,000 cells per well. Cell medium was replaced the next day with fresh medium containing DMSO, Rapamycin, or Bafilomycin A1 and incubated for 24 h at 37 °C with 5% CO2. 80 µL of Working prewarmed Nano-Glo® HiBiT lytic buffer containing HiBiT substrate and LgBit protein (N3030) were added to each well containing 20 µL of cell medium and left to incubate on a rocker for 10 min. Samples were read using a luminometer with a 480 nm filter with measured RLU being directly proportional to HiBiT-conjugated LC3.

[2] = test system: A53T a-syn expressing HEK293 cells; experiment: Cell Titer-Glo cell viability, A53T a-syn expressing cells; format: cell-based, human; settings: for cell viability effect of peptides: A53T a-syn, Supp Figure 1A; for Cell viability: A53T, MG132 10 μM, 72 h; for Effect of MIM motif peptides on cell viability in A53T a-syn expressing cells: Supp Figure 1H
Procedure: (§1) Oligonucleotides encoding the specific peptides were synthesized and individually cloned into the pLJM1 nGFP lentiviral vector. HEK293T cells were infected with individual constructs, and cell viability was assessed using Cell Titer-Glo luminescent assay (Promega) at 72 h post infection.
(§2) Cells were trypsinized from subconfluent cultures as described earlier, suspended in culture media, and then seeded into triplicate wells of a 96-well plate (100 µl/well) at a density of 1.5 × 10^4 cells per well with standard culture conditions of 5% CO2 at 37 °C. Cells were infected with lentivirus expressing peptide at a MOI of 5 for 72 h or transfected with plasmid for 72 h. Cell Titer-Glo reagent was added to each well (30 µL), according to the manufacturer’s protocol and […].

[3] = test system: A53T a-syn; experiment: A53T a-syn protein level in HEK293 cells by immunoblot; format: cell-based, human
Procedure: Infected or transfected cells were scraped from six-well dishes and lysed with lysis buffer (50 mM Tris-HCl pH 7.4, 1% Nonidet P-40, 150 mM NaCl, 1 mM EDTA, 1× protease inhibitor mixture (Sigma)) for 30 min at 4 °C. The insoluble pellet was removed following a 10,000 rpm spin for 5 min at 4 °C. Lysates were analyzed by SDS-PAGE/immunoblot using 4–20% Mini-PROTEAN Tris-glycine gels (Bio-Rad), transferred to polyvinylidene fluoride (PVDF) membranes, and blocked in 5% milk containing PBS-Tween-20 (0.1%) for 1 h. PVDF membranes were then incubated with specified primary antibodies followed by incubation with horseradish peroxidase-conjugated secondary antibodies (anti-mouse HRP-linked, Cell Signaling, catalog #7076, 1:5000; anti-rabbit HRP-linked, Cell Signaling, catalog #7074, 1:5000) and detected using enhanced chemiluminescence (GE Healthcare). Anti-a-syn antibody (clone 42) was obtained from BD Biosciences (catalog #610787, 1:1000). Anti-LAMP1 antibody was obtained from Abcam (catalog #ab24170, 1:500). Anti-beta-actin antibody was obtained from Cell Signaling (13E5) (catalog #4970, 1:1000). Anti-CD63 antibody was obtained from R&D Systems (catalog #MAB50482-SP, 1:1000).

[4] = test system: WT a-syn oligomers; experiment: Luciferase PCA of WT a-syn oligomers; format: cell-based, human; settings: for Oligomers %: WT oligomers, luciferase activity; for Effect on WT a-syn oligomers: luciferase PCA
Procedure: as §1
(§3) Tet-off HEK293 cells stably expressing split luciferase-a-syn constructs and tet-off parent HEK293 cell lines were maintained in DMEM supplemented with 10% FBS and 1% pen/strep/glutamine. […] Cells were trypsinized from subconfluent culture and seeded in a 96-well plate at a density of 15,000 cells per well. Cells were incubated overnight at 37 °C in 5% CO2. Cells were transfected with GFP-peptide plasmids. After 6 h of incubation, 20 µL of cell medium was transferred to a black flat-bottomed 96-well plate. Fifty microliters of Working solution (Pierce Gaussia-Firefly Luciferase Dual Assay Kit, Thermo Scientific, 16181) were added into each well containing cell medium. Immediately after adding the reagent, samples were read using a luminometer with a 480 nm filter.

[5] = test system: A53T a-syn oligomers; experiment: Luciferase PCA of A53T a-syn oligomers; format: cell-based, human; settings: for Effect on A53T a-syn oligomers: luciferase PCA, n=3
Procedure: as §1, §3

[6] = test system: WT a-syn expressing HEK293 cells; experiment: Cell Titer-Glo cell viability, WT a-syn expressing cells; format: cell-based, human; settings: WT alpha-synuclein; for Cell viability: MG132 10 μM, 72 h; for cell viability effect of peptides: Supp Figure 1A;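 on cell viability effect of peptides: measured without MG132 proteasome inhibitor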
Procedure: as §1, §2

[7] = test system: Parent HEK293 cells; experiment: Cell Titer-Glo cell viability, parent cells; format: cell-based, human; settings: for Cell viability: MG132 10 μM, 72 h; for cell viability effect of peptides: Supp Figure 1A;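 on cell viability effect of peptides: measured without MG132 proteasome inhibitor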
Procedure: as §1, §2

[8] = test system: PDE dopaminergic neurons of A30P a-syn C. elegans; experiment: C. elegans PDE neurite length assay; format: in vivo
Procedure: C. elegans strains were grown and maintained under standard conditions at 22–23 °C [66]. BZ555 [dat-1p::gfp] was obtained from the C. elegans Genetics Center (CGC; University of Minnesota, St Paul, MN, USA), TWH1 ([dat-1p::a-syn(A30P), ges-1p::DsRed]; [dat-1p::gfp]) was obtained by crossing BZ555 with A30P a-syn transgenic animals (kindly provided by Dr. Takeshi Iwatsubo, University of Tokyo)[67].
The peptide construct (pPD97.78_osm-6p_TagRFP_wpeptide) was obtained by subcloning the following fragments into NheI and SpeI sites of pPD97.78 (A. Fire): NheI-AgeI […] fragment (2.4 kb) obtained by PCR using primer set 5′-[…]-3′ and 5′-[…]-3′ and N2 genomic DNA as a template, AgeI-EcoRI TagRFP fragment obtained by PCR using primer set 5′-gttgaccggt[…]-3′ and 5′-ggcagaattcga[…]-3′, EcoRI-SmaI peptide ([…]) fragment digested from CMV_[…]_worm, SmaI-SpeI unc-54 3′-UTR fragment digested from pPD95.75 (Fire vector). The TagRFP control construct was obtained by replacing the EcoRI-SmaI peptide fragment and SmaI-SpeI unc-54 3′-UTR fragment from pPD97.78_osm-6p_TagRFP_wpeptide, to EcoRI- SpeI unc-54 3′-UTR fragment digested from pPD95.75[68].
Each plasmid (40 ng/µl) was injected with a co-injection marker, sur-5p::mCherry into TWH1. The animals carrying the extrachromosomal arrays were transferred to new plates, and their progenies were analyzed at the adult stage under a widefield microscope (Zeiss AxioObserver). Pearson Chi-square test was used for statistical analysis.

[9] = target: T1, purified recombinant CHMP2B (UniProt Q9UQN3 1-213); experiment: fluorescence polarisation; FITC-peptide constant at 50 nM, CHMP2B serially diluted 1:1 from 30 μM; 50 mM Na phosphate pH 5.5 or 20 mM Na acetate pH 5.5, 0.5 mM TCEP, 0.005% Triton-X-100; 30 min at room temperature; settings: both partners purified
T1 construct: CHMP2B from the vector pET-DEST42 CHMP2B; eluted as a 26 kDa monomer; Removal of tags is not described; source: E. coli Overexpress C41, inclusion bodies, purified (Ni-NTA in guanidine HCl, dialysis, SEC)
T1 sequence (Q9UQN3 whole entry): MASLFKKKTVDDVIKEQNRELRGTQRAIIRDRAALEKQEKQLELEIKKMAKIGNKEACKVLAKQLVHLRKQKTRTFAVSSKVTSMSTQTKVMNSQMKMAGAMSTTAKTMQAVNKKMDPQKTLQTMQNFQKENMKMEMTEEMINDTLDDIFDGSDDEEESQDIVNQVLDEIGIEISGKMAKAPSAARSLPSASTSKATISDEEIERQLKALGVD

Molecule: CO/C1=C\C(C)=C\[C@@H](C)[C@@H](O)[C@@H](C)C/C(C)=C/C=C/[C@H](OC)[C@@H]([C@@H](C)[C@@H](O)[C@H](C)[C@@]2(O)C[C@@H](O)[C@H](C)[C@@H](C(C)C)O2)OC1=O [bafilomycin A1]
- Effect on autophagic flux [1]: increases LC3 reporter levels and luminescent signal

Molecule: CO[C@H]1C[C@@H]2CC[C@@H](C)[C@@](O)(O2)C(=O)C(=O)N2CCCC[C@H]2C(=O)O[C@H]([C@H](C)C[C@@H]2CC[C@@H](O)[C@H](OC)C2)CC(=O)[C@H](C)/C=C(\C)[C@@H](O)[C@@H](OC)C(=O)[C@H](C)C[C@H](C)/C=C/C=C/C=C/1C [rapamycin]
- Effect on autophagic flux [1]: decreased LC3 reporter levels and luminescent signal

Molecule: CHMP2B 1-199: truncated version of CHMP2B (amino acids 1–199), in which the MIM is removed
- Effect on cell survival/viability ([2]; A53T a-syn cells): rescues toxicity
- Effect on A53T a-syn protein level [3]: reduction in a-syn

Molecule: EIERQLKALG [PDpep1.2]
- Oligomers % ([4]; column 1): 104.991%
- Oligomers % ([4]; column 2): 81.7556%
- Oligomers % ([4]; column 3): 72.2892%
- Oligomers % ([4]; column 4): 74.8709%
- Oligomers % ([4]; column 5): 62.3924%
- Effect on WT a-syn oligomers [4]: significant reduction in a-syn oligomers
- Effect on A53T a-syn oligomers [5]: significant reduction in A53T a-syn oligomers
- A53T a-syn oligomers as measured by luciferase activity ([5]; replicate 1): 251502
- A53T a-syn oligomers as measured by luciferase activity ([5]; replicate 2): 281836
- A53T a-syn oligomers as measured by luciferase activity ([5]; replicate 3): 251716
- cell viability effect of peptides ([2]; replicate 1): 14600
- cell viability effect of peptides ([2]; replicate 2): 15600
- cell viability effect of peptides ([2]; replicate 3): 14800
- Cell viability ([2]; replicate 1): 7500
- Cell viability ([2]; replicate 2): 6200
- Cell viability ([2]; replicate 3): 6500
- Effect of MIM motif peptides on cell viability in A53T a-syn expressing cells ([2]; replicate 1): 6674
- Effect of MIM motif peptides on cell viability in A53T a-syn expressing cells ([2]; replicate 2): 6850
- Effect of MIM motif peptides on cell viability in A53T a-syn expressing cells ([2]; replicate 3): 6527
- Cell viability ([6]; replicate 1): 4000
- Cell viability ([6]; replicate 2): 4200
- Cell viability ([6]; replicate 3): 4500
- cell viability effect of peptides ([6]; replicate 1): 13200
- cell viability effect of peptides ([6]; replicate 2): 13400
- cell viability effect of peptides ([6]; replicate 3): 13100
- Cell viability ([7]; replicate 1): 4500
- Cell viability ([7]; replicate 2): 5400
- Cell viability ([7]; replicate 3): 4100
- cell viability effect of peptides ([7]; replicate 1): 12600
- cell viability effect of peptides ([7]; replicate 2): 12500
- cell viability effect of peptides ([7]; replicate 3): 13000

Molecule: FEELEAQLARLR [TagRFP::peptide]
- Effect on PDE neurite shortening ([8]; A30P human a-syn): partially rescued
- Proportion displaying Long PDE neurite length ([8]; a-Syn (A30P), Marker +, adult): 36.95%
- Proportion displaying Medium PDE neurite length ([8]; a-Syn (A30P), Marker +, adult): 48.43%
- Proportion displaying Short PDE neurite length ([8]; a-Syn (A30P), Marker +, adult): 14.62%

Molecule: IERQLKA [PDpep1.1]
- Oligomers % ([4]; column 1): 106.713%
- Oligomers % ([4]; column 2): 81.3253%
- Oligomers % ([4]; column 3): 66.2651%
- Oligomers % ([4]; column 4): 77.4527%
- Oligomers % ([4]; column 5): 64.5439%
- Effect on WT a-syn oligomers [4]: significant reduction in a-syn oligomers
- Effect on A53T a-syn oligomers [5]: significant reduction in A53T a-syn oligomers
- A53T a-syn oligomers as measured by luciferase activity ([5]; replicate 1): 261554
- A53T a-syn oligomers as measured by luciferase activity ([5]; replicate 2): 321472
- A53T a-syn oligomers as measured by luciferase activity ([5]; replicate 3): 271592
- cell viability effect of peptides ([2]; replicate 1): 13600
- cell viability effect of peptides ([2]; replicate 2): 13400
- cell viability effect of peptides ([2]; replicate 3): 12400
- Cell viability ([2]; replicate 1): 6400
- Cell viability ([2]; replicate 2): 6200
- Cell viability ([2]; replicate 3): 6100
- Effect of MIM motif peptides on cell viability in A53T a-syn expressing cells ([2]; replicate 1): 6738
- Effect of MIM motif peptides on cell viability in A53T a-syn expressing cells ([2]; replicate 2): 6300
- Effect of MIM motif peptides on cell viability in A53T a-syn expressing cells ([2]; replicate 3): 6152
- Cell viability ([6]; replicate 1): 4800
- Cell viability ([6]; replicate 2): 4300
- Cell viability ([6]; replicate 3): 4100
- cell viability effect of peptides ([6]; replicate 1): 13800
- cell viability effect of peptides ([6]; replicate 2): 13400
- cell viability effect of peptides ([6]; replicate 3): 12900
- Cell viability ([7]; replicate 1): 3550
- Cell viability ([7]; replicate 2): 3700
- Cell viability ([7]; replicate 3): 3800
- cell viability effect of peptides ([7]; replicate 1): 12600
- cell viability effect of peptides ([7]; replicate 2): 12000
- cell viability effect of peptides ([7]; replicate 3): 12700

B1: FITC-labeled a-syn peptide, amino acids 103-114 (NEEGAPQEGILE) (peptide)
peptide: {FITC}-NEEGAPQEGILE
notes: α-synuclein amino acids 103-114; also called a-syn peptide fragment; source: synthetic peptide (LifeTein)
- Kd [9]: 640 nM

From article PMC10115881, “Disrupting the α-synuclein-ESCRT interaction with a peptide inhibitor mitigates neurodegeneration in preclinical models of Parkinson’s disease” (Nature Communications, 2023)
